The values below come from publication PMC9161972 (Journal of Medical Virology, 2022).

Data set [1] concerns HIV/MLAV pseudovirus (Měnglà virus glycoprotein). The data set is described as follows: organism not typed. The data set is classed as cell-based. The note with it: for IC50: read-out: IC50 HIV/MLAV.
Data set [2] has as its system HIV/MARV pseudovirus (Marburg virus Musoke glycoprotein). The data set is described as follows: organism not typed. The data set is classed as cell-based. Particulars: for IC50: read-out: IC50 HIV/MARV.
Data set [3] deals with HIV/EBOV pseudovirus (Ebola virus Zaire Mayinga glycoprotein). The data set is described as follows: organism not typed. In kind it is cell-based. The note with it: for IC50: read-out: IC50 HIV/EBOV.
A short description of the next data set: in vitro. Particulars: human.
Data set [4] relates to HIV/VSV pseudovirus (control). In kind it is cell-based, vesicular stomatitis virus.
Another data set concerns MLAV. Particulars: cited from earlier work.

Structures are written as SMILES. Read-outs that look alike come from different tables or passages of the source. Where a SMILES comes first, the peptide text is derived from it. The star is where a group is joined. Cbz = O=C(OCc1ccccc1)*; CHN2 = [N-]=[N+]=C*; tBu = CC(C)(C)*

`NCCc1ccc(S(=O)(=O)F)cc1` [AEBSF]: in data set [1], the “inhibition of MLAV pseudovirus entry (in words)” value was “unable to effectively inhibit” and the IC50 was 36.7 ± 10.4 µM. Also, in the data set with A549 cells, the CC50 was approximately 100 µM. For the same compound, in data set [2], the “inhibition of MARV pseudovirus entry (in words)” value is on record as “limited inhibition” and the IC50 turned out to be 29 ± 1.7 µM. Moreover, in data set [3], the “inhibition of EBOV pseudovirus entry (in words)” value is “limited inhibition” and the IC50 worked out at 19.1 ± 0.58 µM.
For `CN1[C@@H]2CC[C@H]1C[C@@H](OC(c1ccccc1)c1ccccc1)C2` [Benztropine], the CC50 in “in vitro” was found to be 54.5 ± 2 µM.
For `CC(C)COCC(CN(Cc1ccccc1)c1ccccc1)N1CCCC1` (centres unmarked) [Bepridil], the IC50 was 9.74 ± 0.94 µM in data set [1] (A549, 48 h); 7.37 ± 0.9 µM in data set [2] (A549, 48 h); 3.27 ± 0.4 µM in data set [3] (A549, 48 h). Moreover, the CC50 in “in vitro” was determined as 34.7 ± 4.6 µM.
As to `CCCNC(=O)[C@H]1O[C@@H]1C(=O)N[C@H](C(=O)N1CCC[C@H]1C(=O)O)[C@@H](C)CC` [CA‐074], the “inhibition of MLAV pseudovirus entry at 100 µM (in words)” value in data set [1] (at 100 µM) is reported as “resistant”. In addition, the IC50 was more than 100 µM in data set [1], more than 100 µM in data set [2] and 28.4 ± 6.56 µM in data set [3]. This compound had a CC50 in the data set on A549 cells of more than 100 µM. Also, the “inhibition of MARV pseudovirus entry at 100 µM (in words)” value in data set [2] (at 100 µM) is “resistant”. Also, the “inhibition of VSV pseudovirus entry at 100 µM (in words)” value in data set [4] is “resistant”.
Regarding `CC(C)(C)Oc1ccc(C[C@H](NC(=O)[C@H](Cc2ccccc2)NC(=O)OCc2ccccc2)C(=O)C=[N+]=[N-])cc1` [Cathepsin L Inhibitor III] (Cbz-Phe-Tyr(tBu)-CHN2), the IC50 turned out to be 7.14 ± 1.5 µM in data set [1], 2.38 ± 0.4 µM in data set [2] and 0.75 ± 0.19 µM in data set [3]. In addition, in the data set on A549 cells, the CC50 was more than 100 µM. For the same compound, the “inhibition of VSV pseudovirus entry at 100 µM (in words)” value in data set [4] is reported as “no inhibition”.
As to `CCCCOc1cc(C(=O)NCCN(CC)CC)c2ccccc2n1` [Dibucaine], the IC50 in data set [1] (A549, 48 h) is 10.8 ± 1.68 µM; in data set [2] (A549, 48 h), 5.82 ± 0.37 µM; in data set [3] (A549, 48 h) it was 2.93 ± 1.04 µM. Also, the CC50 in the data set “in vitro” turned out to be 51.3 ± 1.2 µM.
As for `CNCCC(Oc1ccc(C(F)(F)F)cc1)c1ccccc1` (centres unmarked) [Fluoxetine], in the data set “in vitro”, the CC50 is 28.7 ± 0.1 µM.
On to `CN(C)CCCN1c2ccccc2CCc2ccccc21` [Imipramine], for which the IC50 in data set [1] (A549, 48 h) turned out to be 7.91 ± 0.81 µM; in data set [2] (A549, 48 h), 5.55 ± 1.12 µM; in data set [3] (A549, 48 h) it was 2 ± 0.65 µM. Besides, the CC50 in “in vitro” stood at 76.3 ± 7.4 µM.
`CC(=O)N[C@@H](CC(C)C)C(=O)N[C@@H](CC(C)C)C(=O)N[C@H](C=O)CCCNC(=N)N` [Leupeptin]: the IC50 turned out to be 1.24 ± 0.29 µM in data set [1] (A549, 48 h); 0.92 ± 0.27 µM in data set [2] (A549, 48 h); 0.41 ± 0.04 µM in data set [3] (A549, 48 h). The same compound came in with a CC50 in the data set “in vitro” of more than 100 µM. Moreover, the “inhibition of VSV pseudovirus entry (in words)” value in data set [4] is listed as “ineffective”.
In the case of `CC(C)[C@H](NC(=O)OCc1ccccc1)C(=O)N[C@H](C=O)Cc1ccccc1` [MDL‐28170] (Cbz-Val-Phe-aldehyde), the “inhibition of MLAV pseudovirus entry (in words)” value in data set [1] is reported as “can block”. The IC50 was determined as 9.46 ± 1.69 µM in data set [1] (A549, 48 h); 1.69 ± 0.46 µM in data set [2] (A549, 48 h); 1.44 ± 0.2 µM in data set [3] (A549, 48 h). In data set [2], the “inhibition of MARV pseudovirus entry (in words)” value is recorded as “can block”. In addition, the “inhibition of EBOV pseudovirus entry (in words)” value in data set [3] is “can block”. In “in vitro”, this compound gave a CC50 of more than 100 µM.
As to `Fc1ccc([C@@H]2CCNC[C@H]2COc2ccc3c(c2)OCO3)cc1` [Paroxetine], the “selectivity index (SI) with MLAV” value in data set [1] came to 5. The IC50 in data set [1] (A549, 48 h) turned out to be 4.88 ± 1.7 µM; in data set [2] (A549, 48 h) it was 1.83 ± 0.66 µM; in data set [3] (A549, 48 h), 0.36 ± 0.4 µM. The compound also gave a CC50 in “in vitro” of 23.6 ± 2.5 µM.
`CN[C@H]1CC[C@@H](c2ccc(Cl)c(Cl)c2)c2ccccc21` [Sertraline]: in “in vitro”, the CC50 stood at 15 ± 0.9 µM.
`CN(C)CCOc1ccc(/C(=C(/CCCl)c2ccccc2)c2ccccc2)cc1` [Toremifene]: the IC50 in data set [1] (A549, 48 h) was 3.63 ± 0.72 µM; in data set [2] (A549, 48 h) it was 1.75 ± 0.86 µM; in data set [3] (A549, 48 h), 0.06 ± 0.05 µM. In the data set on MLAV, the “inhibition of MLAV (in words)” value was “inhibited MLAV”. This compound also registered a CC50 in the data set “in vitro” of 25.3 ± 1.6 µM.
